Test results reported in the NIST ThermoML archive (doi:10.1016/j.tca.2014.09.022).
± gives the expanded uncertainty stated by the source.

Assays:
[1] = DTA
[2] = Molar enthalpy of transition or fusion; settings: DSC

| SMILES | Triple point temperature ([1]; Crystal) | Molar enthalpy of transition or fusion ([2]; Crystal) | Triple point temperature ([1]; Crystal 1) | Triple point temperature ([1]; Crystal 2) | Molar enthalpy of transition or fusion ([2]; Crystal 1) | Molar enthalpy of transition or fusion ([2]; Crystal 2) |
| --- | --- | --- | --- | --- | --- | --- |
| O=C(O)CCCCCCCCC(=O)O [1,10-decanedioic acid] | 405.65 ± 2.5 K | 10.7 ± 0.574 kcal/mol | – | – | – | – |
| CNC(N)=O [methylurea] | 368.15 ± 5 K | 3.05 ± 0.177 kcal/mol | – | – | – | – |
| O=C(O)CCCC(=O)O [1,5-pentanedioic acid] | 369.65 ± 2.5 K | 5.02 ± 0.287 kcal/mol | – | – | – | – |
| OCCCCCCCCCCO [1,10-decanediol] | 344.65 ± 2.5 K | 10.7 ± 0.574 kcal/mol | – | – | – | – |
| CCCCCCCCCCCCCCCCCCCCCCCCCCCC [octacosane] | – | – | 335.65 ± 2.5 K | 330.65 ± 2.5 K | 15.3 ± 0.86 kcal/mol | 8.49 ± 0.478 kcal/mol |

Now from value to compound:

| Triple point temperature ([1]; Crystal) | Molar enthalpy of transition or fusion ([2]; Crystal) | Triple point temperature ([1]; Crystal 1) | Triple point temperature ([1]; Crystal 2) | Molar enthalpy of transition or fusion ([2]; Crystal 1) | Molar enthalpy of transition or fusion ([2]; Crystal 2) | SMILES |
| --- | --- | --- | --- | --- | --- | --- |
| 390.15 ± 3 K | 9.54 ± 0.502 kcal/mol | – | – | – | – | OC[C@@H](O)[C@@H](O)CO [meso-1,2,3,4-butanetetrol] |
| 445.65 ± 2.5 K | 5.68 ± 0.311 kcal/mol | – | – | – | – | Oc1ccc(O)cc1 [1,4-benzenediol] |
